US10774064B2 (Cadent Therapeutics, Inc., priority 2016, dated 2020)

Molecular target: T1, small-conductance Ca2+-activated K+ channels (SK channels, subtype 2) (Homo sapiens, UniProt Q9H2S1)
T1 construct: expressed in transfected cells; host or cells: HEK293
Experiment: whole-cell patch-clamp of ionic current through SK2 channels in HEK293 cells (SC100)
Type: cell-based
Details: concentration that increases the basal current by 100%; HEK293 cells expressing SK2 channels
Summary of the method: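 Whole-cell patch-clamp recording of current in HEK293 cells expressing SK2 channels. SC100 is the compound concentration that increases basal current by 100%.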

Compound	SC100
Cc1cc(C)n(-c2nc(NC3CCC(F)(F)CC3)cc([C@@H](C)O)n2)n1 (single isomer, unassigned) [Compound 198, (−)1-(6-((4,4-difluorocyclohexyl)amino)-2-(3,5-dimethyl-1H-pyrazol-1-yl)pyrimidin-4-yl)ethan-1-ol]	+ (+ means >1 uM)
CCN(c1nc(C)cc(-n2nc(C)cc2C)n1)C1CCC(F)(F)CC1 [Compound 160, N-(4,4-difluorocyclohexyl)-4-(3,5-dimethyl-1H-pyrazol-1-yl)-N-ethyl-6-methylpyrimidin-2-amine]	+ (+ means >1 uM)
Cc1cc(C)n(-c2nc(NC3CCCC(F)(F)C3)cc(C(C)(C)O)n2)n1 (centres unmarked) [Compound 356, 2-(6-((3,3-difluorocyclohexyl)amino)-2-(3,5-dimethyl-1H-pyrazol-1-yl)pyrimidin-4-yl)propan-2-ol]	+ (+ means >1 uM)
Cc1cc(C)n(-c2cc(OCc3ncn(C)n3)cc(NC3CCC(F)(F)CC3)n2)n1 [Compound 275, N-(4,4-difluorocyclohexyl)-6-(3,5-dimethyl-1h-pyrazol-1-yl)-4-((1-methyl-1H-1,2,4-triazol-3-yl)methoxy)pyridin-2-amine]	+ (+ means >1 uM)
Cc1cc(NC2CCC(F)(F)CC2)nc(-n2ccc(C(C)C)n2)n1 [Compound 218, N-(4,4-difluorocyclohexyl)-2-(3-isopropyl-1H-pyrazol-1-yl)-6-methylpyrimidin-4-amine]	++ (++ means 200 nM-1000 nM)
Cc1cc(NC2CCC(F)(F)C2)nc(-n2nc(C)cc2C)n1 (centres unmarked) [Compound 172]	+ (+ means >1 uM)
Cc1cc(C)n(-c2cc(C(C)O)cc(NC3CCC(F)(F)CC3)n2)n1 (centres unmarked) [Compound 207, 1-(2-((4,4-difluorocyclohexyl)amino)-6-(3,5-dimethyl-1H-pyrazol-1-yl)pyridin-4-yl)ethan-1-ol]	+ (+ means >1 uM)
Cc1cc(C)n(-c2nc(NC3CCC(F)(F)CC3)cc(N3CCOC(C(N)=O)C3)n2)n1 (centres unmarked) [Compound 115, 4-(6-((4,4-difluorocyclohexyl)amino)-2-(3,5-dimethyl-1H-pyrazol-1-yl)pyrimidin-4-yl)morpholine-2-carboxamide]	+ (+ means >1 uM)
Cc1cc(C)n(-c2nc(NC3CCC(F)(F)C3)cc(C(C)(C)O)n2)n1 (centres unmarked) [Compound 214, 2-(6-((3,3-difluorocyclopentyl)amino)-2-(3,5-dimethyl-1H-pyrazol-1-yl)pyrimidin-4-yl)propan-2-ol]	+ (+ means >1 uM)
CC(=O)N1CCN(c2cc(-n3nc(C)cc3C)nc(NC3CCC(F)(F)CC3)n2)CC1 [Compound 101, 1-(4-(2-((4,4-difluorocyclohexyl)amino)-6-(3,5-dimethyl-1H-pyrazol-1-yl)pyrimidin-4-yl)piperazin-1-yl)ethan-1-one]	++ (++ means 200 nM-1000 nM)
Cc1cc(NC2CCC(F)(F)CC2)nc(-n2nc(C)cc2C)c1 [Compound 159, N-(4,4-difluorocyclohexyl)-6-(3,5-dimethyl-1H-pyrazol-1-yl)-4-methylpyridin-2-amine]	++ (++ means 200 nM-1000 nM)
Cc1cc(NC2CCC(F)(F)CC2)nc(-n2cc(C)c(C(F)F)n2)n1 [Compound 246, N-(4,4-difluorocyclohexyl)-2-(3-(difluoromethyl)-4-methyl-1H-pyrazol-1-yl)-6-methylpyrimidin-4-amine]	+++ (+++ means <200 nM)

Same assay, conditions: whole-cell patch-clamp, HEK293 cells expressing SK2 channels; concentration that increases the basal current by 100%

Compound	SC100 (μM)
Cc1ccn(-c2nc(NC3CCC(F)(F)CC3)cc(N3CCNC(=O)C3)n2)n1 [IN11106-091-P1]	++ (++ means 200 nM-1000 nM)
CNC(=O)Oc1c(NC2CCC(F)(F)CC2)nc(-c2nc(C)cs2)[nH]c1=O [IN11125-006-P1, 4-((4,4-difluorocyclohexyl)amino)-6-hydroxy-2-(4-methylthiazol-2-yl)pyrimidin-5-yl methylcarbamate]	+ (+ means >1 uM)
Cc1cc(C)n(-c2cc(NC3CCC(F)(F)CC3)cc(N3CCOCC3)c2)n1 [IN10963-024-P1, N-(4,4-difluorocyclohexyl)-3-(3,5-dimethyl-1H-pyrazol-1-yl)-5-morpholinoaniline]	+ (+ means >1 uM)
NC(=O)OCc1cc(N(C(N)=O)C2CCC(F)(F)CC2)nc(-n2ccc(C3CC3)n2)n1 [IN11137-079-P1, (2-(3-cyclopropyl-1H-pyrazol-1-yl)-6-(1-(4,4-difluorocyclohexyl)ureido)pyrimidin-4-yl)methyl carbamate]	+ (+ means >1 uM)
Cc1csc(-c2cc(N3CCOCC3)cc(NC3CCC(F)(F)CC3)n2)n1 [NSSy5646]	++ (++ means 200 nM-1000 nM)
COC1CCCN(c2cc(NC3CCC(F)(F)CC3)nc(-c3nc(C)cs3)n2)C1 (centres unmarked) [IN10876-013-P1]	++ (++ means 200 nM-1000 nM)
Cc1cc(C)n(-c2cc(OCc3ncco3)cc(NC3CCC(F)(F)CC3)n2)n1 [IN11067-023-P1, N-(4,4-difluorocyclohexyl)-6-(3,5-dimethyl-1H-pyrazol-1-yl)-4-(oxazol-2-ylmethoxy)pyridin-2-amine]	+++ (+++ means <200 nM)
Cc1csc(-c2nc(NC3CCC(F)(F)CC3)cc(OCC#N)n2)n1 [IN11196-007-P1, 2-((6-((4,4-difluorocyclohexyl)amino)-2-(4-methylthiazol-2-yl)pyrimidin-4-yl)oxy)acetonitrile]	++ (++ means 200 nM-1000 nM)
Cc1nsc(-c2nc(NC3CCC(F)(F)CC3)cc(N3CCOCC3)n2)n1 [NSSy5832]	+ (+ means >1 uM)
COCc1cc(-n2ccc(C(F)(F)F)n2)nc(NC2CCC(F)(F)CC2)n1 [NSSy6674, N-(4,4-difluorocyclohexyl)-4-(methoxymethyl)-6-(3-(trifluoromethyl)-1H-pyrazol-1-yl)pyrimidin-2-amine]	+ (+ means >1 uM)
Cc1ccn(-c2cc(C(F)F)cc(NC3CCC(F)(F)CC3)n2)n1 [NSSy5839, N-(4,4-difluorocyclohexyl)-4-(difluoromethyl)-6-(3-methyl-1H-pyrazol-1-yl)pyridin-2-amine]	++ (++ means 200 nM-1000 nM)
Cc1ccn(-c2cc(NC3CCC(F)(F)CC3)nc(-n3ccc(C)n3)c2)n1 [IN11054-030-P1, N-(4,4-difluorocyclohexyl)-4,6-bis(3-methyl-1H-pyrazol-1-yl)pyridin-2-amine]	+ (+ means >1 uM)
Cc1csc(-c2nc(NC3CCC(F)(F)CC3)cc(N3CCOC(CNC(=O)OC(C)(C)C)C3)n2)n1 (centres unmarked) [IN10880-033-P1]	++ (++ means 200 nM-1000 nM)
[2H]c1c(NC2CCC(F)(F)CC2)nc(-c2nc(C)cs2)nc1OC1CN(C(=O)OC)C1 [NSSy6045, methyl 3-((6-((4,4-difluorocyclohexyl)amino)-2-(4-methylthiazol-2-yl)pyrimidin-4-yl-5-d)oxy) azetidine-1-carboxylate]	+ (+ means >1 uM)
Cc1ccn(-c2cc(C(O)c3cccnc3)cc(NC3CCC(F)(F)CC3)n2)n1 (centres unmarked) [NSSy5676, (2-((4,4-difluorocyclohexyl)amino)-6-(3-methyl-1H-pyrazol-1-yl)pyridin-4-yl)(pyridin-3-yl)methanol]	+++ (+++ means <200 nM)
Cc1csc(-c2nc(NC3CCC(F)(F)CC3)cc(N3C[C@@H]4C[C@H]3CN4)n2)n1 [IN10987-050-P1]	+ (+ means >1 uM)

Compound	SC100 (μM)
Cc1csc(-c2cc(N3CCN4C(=O)OC[C@@H]4C3)cc(NC3CCC(F)(F)CC3)n2)n1 [NSSy5837]	+++ (+++ means <200 nM)
Cc1ccn(-c2cc(N3CCOCC3)cc(NC3CCC(F)(F)CC3)n2)n1 [NSSy6573]	++ (++ means 200 nM-1000 nM)
Cc1cc(NC2CCC(F)(F)CC2)nc(-n2ccc(C3CC3)n2)n1 [NSSy6935]	++ (++ means 200 nM-1000 nM)
Cc1ccn(-c2cc(C(=O)O)nc(NC3CCC(F)(F)CC3)n2)n1 [NSSy6684, 2-((4,4-difluorocyclohexyl)amino)-6-(3-methyl-1H-pyrazol-1-yl)pyrimidine-4-carboxylic acid]	+ (+ means >1 uM)
Cc1ccn(-c2nc(NC3CC=CCC3)cc(N3CC4(COC4)C3)n2)n1 (centres unmarked) [NSSy5670]	++ (++ means 200 nM-1000 nM)
Cc1cc(C)n(-c2nc(CCO)cc(NC3CCC(F)(F)CC3)n2)n1 [IN10963-077-P1, 2-(6-((4,4-difluorocyclohexyl)amino)-2-(3,5-dimethyl-1H-pyrazol-1-yl)pyrimidin-4-yl) ethan-1-ol]	+ (+ means >1 uM)
Cc1cc(NC2CCC(F)(F)CC2)nc(-n2ccc(C3(C)CC3)n2)n1 [NSSy7012]	+ (+ means >1 uM)
Cc1ccn(-c2cc(OCc3ncco3)cc(NC3CCC(F)(F)CC3)n2)n1 [IN11177-043-P1]	++ (++ means 200 nM-1000 nM)
OCc1cc(NC2CCC(F)(F)CC2)nc(-n2ccc(C3CC3)n2)c1 [IN11111-092-P1]	++ (++ means 200 nM-1000 nM)
Cc1ccn(-c2cc(COc3ccc(C#N)cn3)cc(NC3CCC(F)(F)CC3)n2)n1 [NSSy6371]	+++ (+++ means <200 nM)
Cc1ccn(-c2nc(NC3CCC(F)(F)CC3)cc(OCc3cnco3)n2)n1 [IN11054-012-P1]	++ (++ means 200 nM-1000 nM)
Cc1csc(-c2nc(NC3CC=CCC3)cc(N3CCOCC3)n2)n1 (centres unmarked) [NSSy5703, N-(cyclohex-3-en-1-yl)-2-(4-methylthiazol-2-yl)-6-morpholinopyrimidin-4-amine]	+ (+ means >1 uM)
COCc1cc(NC2CCC(F)(F)CC2)nc(-c2nc(C)co2)n1 [NSSy5818, N-(4,4-difluorocyclohexyl)-6-(methoxymethyl)-2-(4-methyloxazol-2-yl)pyrimidin-4-amine]	+ (+ means >1 uM)
Cc1cc(NC2CCC(F)(F)CC2)nc(-n2ccc(C3CC3)n2)c1 [IN11106-062-P1, 6-(3-cyclopropyl-1H-pyrazol-1-yl)-N-(4,4-difluorocyclohexyl)-4-methylpyridin-2-amine]	+++ (+++ means <200 nM)
COC(=O)N1CC(Oc2cc(NC3CCC(F)(F)CC3)nc(-c3nc(C)no3)c2)C1 [NSSy5959]	+ (+ means >1 uM)
Cc1ccn(-c2cc(COc3ccc(F)cn3)cc(NC3CCC(F)(F)CC3)n2)n1 [NSSy5996]	++ (++ means 200 nM-1000 nM)
